Laboratory results taken from publication PMC8903829 (eLife, 2022).
pEC50: −log10 of the molar value.

Assays:
[1] = Bioanalytical assessment of plasma and brain concentrations after mouse DC-MES assay; assay type: in vivo; settings: mouse, in vivo, WT mouse DC-MES acute
Method in brief: (§1)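 Blood (cardiac puncture, EDTA) and whole brains taken at end of the in vivo assay; brain homogenized in 1:1 acetonitrile/water. Plasma and homogenate extracted by acetonitrile protein precipitation with internal standard, quantified by UHPLC-ESI-MS/MS against a 1/X-weighted linear calibration.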

[2] = Bioanalytical assessment of plasma and brain concentrations after 6 Hz assay; assay type: in vivo, mouse; settings: Scn8a^N1768D/+, mouse, in vivo, SCN8A mouse 6HZ
Method in brief: as §1

[3] = Bioanalytical assessment of plasma and brain concentrations after rat DC-MES assay; assay type: in vivo; settings: rat, in vivo, Rat DC-MES
[4] = test system: Sprague Dawley rats; assay: Observation of potential adverse behavior (behavioral signs) in the rat DC-MES studies; assay type: in vivo; settings: for behavioral signs concentration (BSC) / plasma EC50 ratio (Tolerability / EC50 Rat MES): rat DC-MES
Procedure: Animals were observed by the scientist(s) responsible for dosing for the first 30 min after dosing for and again at the time of assay (2 hr post dose) for signs of abnormal behavior.

[5] = test system: wild-type mice (CF-1); assay: DC-Maximal electroshock seizure assay (DC-MES); assay type: in vivo, mouse
Method in brief: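 Compounds given 2 hr before corneal DC electroshock; phenytoin i.p. in saline. CF1 mice (9–12 weeks): 50 mA, 60 Hz, 0.2 s; SD rats (5–6 weeks): 150 mA, 60 Hz, 0.3 s; 0.5 ms pulse width, eyes anaesthetised with proparacaine. Absence of tonic-clonic hindlimb extension scored protected (0), blinded scoring.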

COC[C@@H](NC(C)=O)C(=O)NCc1ccccc1 [lacosamide, Lacosamide, reference compound]
concentration at 2 h ([1]; 3 mg/kg, Study18003, 3 mg/kg, read-out: Mean [Brain]): 3.47 µM | concentration at 2 h ([1]; 3 mg/kg, Study18003, 3 mg/kg, read-out: Mean [Palsma]): 3.25 µM | concentration at 2 h ([1]; 3 mg/kg, Study18053, 3 mg/kg, read-out: Mean [Brain]): 1.95 µM | concentration at 2 h ([1]; 3 mg/kg, Study18053, 3 mg/kg, read-out: Mean [Palsma]): 6.21 µM | concentration at 2 h ([1]; 3 mg/kg, Study18063, 3 mg/kg, read-out: Mean [Brain]): 1.26 µM | concentration at 2 h ([1]; 3 mg/kg, Study18063, 3 mg/kg, read-out: Mean [Palsma]): 4.46 µM | concentration at 2 h ([1]; 10 mg/kg, Study18003, 10 mg/kg, read-out: Mean [Brain]): 11.5 µM | concentration at 2 h ([1]; 10 mg/kg, Study18003, 10 mg/kg, read-out: Mean [Palsma]): 9.52 µM | concentration at 2 h ([1]; 30 mg/kg, Study18003, 30 mg/kg, read-out: Mean [Brain]): 34.3 µM | concentration at 2 h ([1]; 30 mg/kg, Study18003, 30 mg/kg, read-out: Mean [Palsma]): 26.7 µM | concentration at 2 h ([2]; 1 mg/kg, Study18011, 1 mg/kg, read-out: Mean [Brain]): 0.728 µM | concentration at 2 h ([2]; 1 mg/kg, Study18011, 1 mg/kg, read-out: Mean [Palsma]): 1.12 µM | concentration at 2 h ([2]; 3 mg/kg, Study18007, 3 mg/kg, read-out: Mean [Brain]): 2.84 µM | concentration at 2 h ([2]; 3 mg/kg, Study18007, 3 mg/kg, read-out: Mean [Palsma]): 3.48 µM | concentration at 2 h ([2]; 10 mg/kg, Study18007, 10 mg/kg, read-out: Mean [Brain]): 9.32 µM | concentration at 2 h ([2]; 10 mg/kg, Study18007, 10 mg/kg, read-out: Mean [Palsma]): 10.7 µM | concentration at 2 h ([2]; 10 mg/kg, Study18028, 10 mg/kg, read-out: Mean [Brain]): 7.58 µM | concentration at 2 h ([2]; 10 mg/kg, Study18028, 10 mg/kg, read-out: Mean [Palsma]): 11.8 µM | concentration at 2 h ([2]; 10 mg/kg, Study18042, 10 mg/kg, read-out: Mean [Brain]): 3.27 µM | concentration at 2 h ([2]; 10 mg/kg, Study18042, 10 mg/kg, read-out: Mean [Palsma]): 14.4 µM | concentration at 2 h ([2]; 30 mg/kg, Study18007, 30 mg/kg, read-out: Mean [Brain]): 21 µM | concentration at 2 h ([2]; 30 mg/kg, Study18007, 30 mg/kg, read-out: Mean [Palsma]): 25.2 µM | concentration at 2 h ([2]; 30 mg/kg, Study18011, 30 mg/kg, read-out: Mean [Brain]): 19.2 µM | concentration at 2 h ([2]; 30 mg/kg, Study18011, 30 mg/kg, read-out: Mean [Palsma]): 29.6 µM | concentration at 2 h ([2]; 56 mg/kg, Study18011, 56 mg/kg, read-out: Mean [Brain]): 28.3 µM | concentration at 2 h ([2]; 56 mg/kg, Study18011, 56 mg/kg, read-out: Mean [Palsma]): 44.7 µM | concentration at 2 h ([3]; 2 mg/kg, Study18060, 2 mg/kg, read-out: Mean [Brain]): 0.641 µM | concentration at 2 h ([3]; 2 mg/kg, Study18060, 2 mg/kg, read-out: Mean [Palsma]): 2.97 µM | concentration at 2 h ([3]; 6 mg/kg, Study18060, 6 mg/kg, read-out: Mean [Brain]): 1.78 µM | concentration at 2 h ([3]; 6 mg/kg, Study18060, 6 mg/kg, read-out: Mean [Palsma]): 8.43 µM | concentration at 2 h ([3]; 12 mg/kg, Study18060, 12 mg/kg, read-out: Mean [Brain]): 3.74 µM | concentration at 2 h ([3]; 12 mg/kg, Study18060, 12 mg/kg, read-out: Mean [Palsma]): 22.9 µM | concentration at 2 h ([3]; 100 mg/kg, Study18068, 100 mg/kg, read-out: Mean [Brain]): 38.2 µM | concentration at 2 h ([3]; 100 mg/kg, Study18068, 100 mg/kg, read-out: Mean [Palsma]): 73.5 µM | minimal plasma concentration provoking behavioral signs (BSC) ([4]; rat): 123 µM | behavioral signs concentration (BSC) / plasma EC50 ratio (Tolerability / EC50 Rat MES) [4]: 5.0 fold | behavioral signs concentration (BSC) / plasma EC50 ratio (Tolerability / EC50 Rat MES) ([4]; listed as Lacosamide): 6.3 fold | pEC50 ([5]; Mus musculus, 2 h, read-out: brain EC50): 5.15 | WT mouse DC-MES acute Fraction of animals seizing ([5]; Study18003, 3 mg/kg): 0.625 | WT mouse DC-MES acute Fraction of animals seizing ([5]; Study18003, 10 mg/kg): 0.375 | WT mouse DC-MES acute Fraction of animals seizing ([5]; Study18003, 30 mg/kg): 0.125 | WT mouse DC-MES acute Fraction of animals seizing ([5]; Study18053, 3 mg/kg): 0.6667 | WT mouse DC-MES acute Fraction of animals seizing ([5]; Study18063, 3 mg/kg): 0.75
